What all share (assay type): cell-based
Data set [1] concerns the target T1, SdiA (Salmonella enterica subsp. enterica serovar Typhimurium, UniProt O66040). The data set is described as follows: Competition dose–response of OOHL (2) against antagonists in the S. Typhimurium SdiA reporter. The following applies: no antagonist (0). Here is the method: We also submitted compounds 11, R8, and F45 to competition-type assays in the S. Typhimurium SdiA reporter to further characterize their activity profiles. […] The results are shown in Figure 5 (EC50 and maximal activity values listed in Supporting Information File 3).
(§1) Salmonella SdiA reporter assay. S. Typhimurium-pJNS25 was grown 16–18 h overnight in LB, diluted 1:100 in fresh LB medium, and then incubated for 6 h at 37 °C with shaking at 200 rpm in the presence of compounds (1% DMSO). For antagonism assays, OOHL (2) at its EC90 (10 nM, 0.1% DMSO) was added to the subculture immediately prior to adding the compound for testing. All compounds were screened at 100 μM and 1 μM in triplicate in agonism and antagonism assays. Raw luminescence values were divided by the OD600 and then normalized to the controls; negative (DMSO) and positive (10 μM OOHL) control samples were included in every assay plate and used to normalize assay results, setting the positive control to 100% and the negative control to 0%. Luminescence was measured using a Biotek Synergy 2 plate reader and Gen 5 software (version 1.05). Dose–response analyses were performed by preparing dilutions of compounds in DMSO and testing each concentration in the agonism or antagonism assays. Competition dose–response assays (data in Figure 5) were performed in the same manner as the antagonism assays, except instead of OOHL being added to the subculture, the antagonist being tested was added. Non-linear regression curve fits were generated using GraphPad Prism software (version 6) using variable slope (four parameter) dose–response analysis.

The target in data set [2] is T1, SdiA. The data set is described as follows: S. Typhimurium-pJNS25 SdiA reporter, competitive antagonism against 10 nM L-OOHL. Particulars: average ± STD, change in activity from 10 nM 2 (OOHL). The method, boiled down: (§2)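 S. Typhimurium-pJNS25 (native SdiA, srgE promoter–luxCDABE) subcultured 1:100 in LB and incubated 6 h at 37 °C, 200 rpm, with compound (1% DMSO); antagonism run against 10 nM L-OOHL. Luminescence normalised between 10 μM OOHL and 1% DMSO controls; triplicates; four-parameter dose–response fits.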

The target of another data set is S. Typhimurium SdiA (Salmonella enterica subsp. enterica serovar Typhimurium, UniProt O66040). The data set is described as follows: E. coli JLD271-pJN105SE-pSC11SE SdiA reporter, agonism. The source says: Biological assays for SdiA activity. Cell-based reporter strains that rely on detecting the transcriptional activity of LuxR-type receptors are commonly used to assess the activity of exogenous ligands. We used the S. Typhimurium-pJNS25 reporter strain constructed by Smith and Ahmer and also used by Janssens et al. to examine SdiA activity. This strain naturally produces SdiA and contains a reporter plasmid with the promoter region for srgE fused to the luxABCDE operon of V. fischeri (see Experimental section for details of all strains and plasmids). SdiA activity is thus reported by the production of luciferase and resulting bioluminescence. We also prepared an SdiA reporter in E. coli (JLD271-pJN105SE-pSC11SE) to examine S. Typhimurium SdiA activity in an alternate background and with a different reporter gene output. E. coli JLD271 is the sdiA mutant of K-12 E. coli. […] SdiA activity is then measured using standard β-galactosidase assays. […]
E. coli SdiA reporter assay. […] A 50 μL aliquot of culture from each well was lysed in 200 μL of Z-buffer and 8 μL of chloroform, and a 100 μL aliquot of this lysate was incubated with 25 μL of 4 mg/mL ONPG for 20 min at 30 °C before reading absorption at 420 nm and 550 nm using a Biotek Synergy 2 plate reader. […]

In data set [3] the target is T1, SdiA. The data set is described as follows: S. Typhimurium-pJNS25 SdiA reporter, agonism (luminescence). In short, it runs like this:
as §2

The subject of the next data set is S. Typhimurium-pJNS25. The following applies: 100 μM compound; footnote f: Cell growth inhibited at this compound concentration. Here is the method:
as §1

T1 sequence (O66040 entry or part of it): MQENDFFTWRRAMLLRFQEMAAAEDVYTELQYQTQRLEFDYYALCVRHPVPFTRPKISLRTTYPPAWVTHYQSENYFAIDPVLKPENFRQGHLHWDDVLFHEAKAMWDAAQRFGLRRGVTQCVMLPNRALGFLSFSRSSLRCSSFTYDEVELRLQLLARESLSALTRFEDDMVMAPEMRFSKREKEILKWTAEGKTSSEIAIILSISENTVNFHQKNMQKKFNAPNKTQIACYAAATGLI
Chain of S. Typhimurium SdiA (O66040 entry or part of it): as above

As to `CCCCCC(=O)CC(=O)N[C@H]1CCOC1=O` [compound 2, reference compound], the EC50 (as a rule, the concentration at which the effect is half-maximal) on SdiA [1] came out at 1.03 nM; on S. Typhimurium SdiA, 1.5 nM; on SdiA [3] (agonism dose–response, read-out: EC50), 1.03 nM. The inhibition (in general, the relative decrease from the control value, in per cent) at 1 µM at SdiA [2] (1 μM compound, read-out: Antagonism 1 μM Inhibition (%)) is -2 ± 9%. In addition, the inhibition at 100 µM on SdiA [2] (100 μM compound, read-out: Antagonism 100 μM Inhibition (%)) stood at 9 ± 5%. Moreover, the EC90 (as a rule, the concentration needed for an effect of 90%) on SdiA [3] (S. Typhimurium reporter) came out at 10 nM. For the same compound, the Emax at SdiA [3] (maximal activity (efficacy) from agonism dose–response, 10 μM OOHL = 100%, DMSO = 0%, read-out: activation (%)) worked out at 110%.
For the compound `O=C1C=C(Br)C(=CBr)O1` [compound 21, reference compound], the “Antagonism 1 μM Inhibition (%)” value on SdiA [2] (1 μM compound) is 29 ± 13%. Moreover, the cell growth entry in the data set on S. Typhimurium-pJNS25 is on record as “--f”.

The values are drawn from PMC6204753, “Non-native autoinducer analogs capable of modulating the SdiA quorum sensing receptor in Salmonella enterica serovar Typhimurium” (Beilstein Journal of Organic Chemistry, 2018).
